Measured values as given in patent publication US20250099405A1, “COMPOSITIONS, METHODS, AND DEVELOPMENT OF ARID4B INHIBITORS” (University of Kentucky Research Foundation, priority 2022, published 2025).

Experiments:
HA-ARID4BAC = target: T1, HA-ARID4BAC (Homo sapiens, UniProt Q4LE39, DEL571-624); test: CETSA in HEK-293T cells expressing the chromodomain deletion mutant; format: cell-based; details: 10 μM, 2 h
T1 construct: transfected with vector, full-length ARID4B or ARID4B deletion mutants; expressed in transfected cells; host or cells: HEK-293T
T1 sequence (Q4LE39 with tags, fused parts or gaps DEL571-624): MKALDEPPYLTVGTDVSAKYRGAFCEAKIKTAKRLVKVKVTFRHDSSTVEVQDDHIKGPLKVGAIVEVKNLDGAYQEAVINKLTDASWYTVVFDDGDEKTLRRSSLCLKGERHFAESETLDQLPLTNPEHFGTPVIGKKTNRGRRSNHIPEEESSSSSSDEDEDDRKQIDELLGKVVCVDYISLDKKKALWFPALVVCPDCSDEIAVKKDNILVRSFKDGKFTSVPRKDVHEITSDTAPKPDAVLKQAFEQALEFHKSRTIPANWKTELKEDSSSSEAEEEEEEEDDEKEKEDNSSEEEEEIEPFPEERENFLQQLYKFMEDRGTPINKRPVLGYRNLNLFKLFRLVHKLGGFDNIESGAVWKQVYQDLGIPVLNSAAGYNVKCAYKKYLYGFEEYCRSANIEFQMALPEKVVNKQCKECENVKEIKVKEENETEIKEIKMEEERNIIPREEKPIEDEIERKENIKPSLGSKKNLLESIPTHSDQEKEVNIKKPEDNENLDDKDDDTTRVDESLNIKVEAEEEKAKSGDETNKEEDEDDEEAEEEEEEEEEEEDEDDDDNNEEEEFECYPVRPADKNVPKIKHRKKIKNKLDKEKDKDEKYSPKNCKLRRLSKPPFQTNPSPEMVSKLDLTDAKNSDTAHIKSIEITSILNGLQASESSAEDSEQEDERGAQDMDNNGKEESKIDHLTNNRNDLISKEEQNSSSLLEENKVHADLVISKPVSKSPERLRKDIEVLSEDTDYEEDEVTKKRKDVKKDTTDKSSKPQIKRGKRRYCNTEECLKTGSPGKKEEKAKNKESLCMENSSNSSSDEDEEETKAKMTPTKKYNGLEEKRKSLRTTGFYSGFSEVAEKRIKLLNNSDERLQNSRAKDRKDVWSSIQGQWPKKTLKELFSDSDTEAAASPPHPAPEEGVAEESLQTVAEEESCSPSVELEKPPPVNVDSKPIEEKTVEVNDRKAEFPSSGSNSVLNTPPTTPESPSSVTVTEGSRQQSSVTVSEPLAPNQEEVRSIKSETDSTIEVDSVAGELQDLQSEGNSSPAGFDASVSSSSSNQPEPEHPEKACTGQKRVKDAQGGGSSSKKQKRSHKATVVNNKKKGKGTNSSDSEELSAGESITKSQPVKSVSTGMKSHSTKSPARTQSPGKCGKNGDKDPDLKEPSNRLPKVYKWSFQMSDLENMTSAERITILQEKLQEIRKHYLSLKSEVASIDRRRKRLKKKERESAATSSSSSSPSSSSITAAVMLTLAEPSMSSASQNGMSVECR
Protocol: (B-C) show cells expressing HA-ARID4B (C) or HA-ARID4BIC (D) treated or not with ARD150 (10 μM) for 2 h were used for CESTA. […] (D-E) show cells expressing HA-ARID4B (D) or Flag-ARID4A (E) treated or not with RWR-18 (10 μM) for 2 h were used for CESTA. […] Data are means±SEM from three experiments. *P<0.05, **P<0.01, ns, not significant.
Using CETSA (cellular thermal shift assay) to examine whether ARD150 or RWR-18 binds to ARID4B, MCF7 cells treated or not with ARD150 or RWR-18 for 2 h were collected, followed by heating at 46, 49, 52, 55, and 58° C. to denature and precipitate ARID4B protein, cell lysis, removal of cell debris and aggregates by centrifugation, and finally detection of remaining thermostable ARID4B protein by western blot. The ARID4B aggregation temperatures without ARD150 were determined to be 49-52° C., but shifted to 52-55° C. after treatment with ARD150 and even more so with RWR-18 (FIG. 15A-D). To determine whether ARD150 and RWR-18 targets the chromodomain of ARID4B, CESTA was performed using chromodomain deletion mutant (ARID4BAC). HEK-293T cells expressing HA-ARID4B or HA-ARID4BAC were treated or not with ARD150 (10 μM) for 2 h and processed for CESTA.

MCF7 xenograft = MCF7 xenograft model; format: in vivo, SCID mice; details: 25 mg/kg once every two days for 24 days
Protocol: The effects of RWR18 on tumor growth was determined using MCF7 xenograft model. When tumor in SCID mice reached 150-200 mm^3, mice were randomized to receive vehicle or RWR18 (25 mg/kg) once every two days for 24 days. […] Bar, 5 mm.
The effects of RWR18 on tumor growth was determined using MCF7 xenograft model. When tumor in SCID mice reaches 150-200 mm^3, mice were randomized to receive vehicle or RWR18 (25 mg/kg) once every two days for 24 days.
The effects of RWR18 on tumor growth was determined using MCF7 xenograft model. When tumor in SCID mice reached 150-200 mm^3, mice were randomized to receive vehicle or RWR18 (25 mg/kg) once every two days for 24 days.

Compound | shift of aggregation temperatures of HA-ARID4BAC (chromodomain deletion mutant) (HA-ARID4BAC) | tumor growth (MCF7 xenograft) | percentage of apoptotic cells in tumors (MCF7 xenograft; versus vehicle)
COc1ccc(C(=O)NCCCN2CCOCC2)cc1OC [ARD150] | no shift was observed |  | 
O=C(COc1ccc(OCc2ccccc2)cc1)NCCCN1CCOCC1 [RWR-18] |  | inhibited tumor growth | increases
